Test results published in patent publication US20080194585A1, “Fungicidal Pyrazine Derivatives” (priority 2005, published 2008).
Marks after values point to notes of the source that are not given here.

Tests used:
Phytophthora infestans = assay: whole plant or invertebrate; type: in vivo
[1] = system: Erysiphe graminis f. sp. tritici; assay: Test L: wheat powdery mildew, preventive spray on wheat seedlings
Rhizoctonia oryzae = assay: Test G: turf brown patch, preventive spray on creeping bent grass seedlings
Description: (the causal agent of turf brown patch) and incubated in a saturated atmosphere at 27° C. for 24 h, and then moved to a growth chamber at 27° C. for 5 days, after which disease ratings were made.

fusarium graminearium = assay: Test I: wheat head scab, preventive spray on wheat seedlings
Description: (the causal agent of wheat head scab) and incubated in a saturated atmosphere at 20° C. for 72 h, and then moved to a growth chamber at 22° C. for 5 days, after which disease ratings were made.

Pythium aphanidermatum = assay: Test A: bluegrass pythium blight, preventive spray on bluegrass seedlings
[2] = system: Colletotrichum orbiculare; assay: Test B: cucumber Colletotrichum anthracnose, preventive spray on cucumber seedlings
Plasmopara viticola = assay: Test D: grape downy mildew, spray after inoculation of grape seedlings; type: in vivo
Text: Upon removal, disease ratings were made. […] A dash (-) indicates no test results.

Botrytis cinerea = assay: Test E: tomato botrytis, preventive spray on tomato seedlings
[3] = system: Puccinia recondita f. sp. tritici; assay: Test K: wheat leaf rust, preventive spray on wheat seedlings
Septoria tritici = assay: Test J: wheat leaf blotch, preventive spray on wheat seedlings; type: in vivo
Text: A dash (-) indicates no test results.

Septoria nodorum = assay: Test H: wheat glum blotch, preventive spray on wheat seedlings
Description: (the causal agent of wheat glum blotch) and incubated in a saturated atmosphere at 20° C. for 48 h, and then moved to a growth chamber at 22° C. for 5 days, after which disease ratings were made.

[4] = 40 ppm (marked *), 100 = 100% disease control, 0 = no control
[5] = 200 ppm, 100 = 100% disease control, 0 = no control

SMILES | Test F disease control rating (Phytophthora infestans; 200 ppm) [%] | Test L disease control rating ([1]; 200 ppm) [%] | Test G disease control rating (Rhizoctonia oryzae; 200 ppm) [%] | Test I disease control rating (fusarium graminearium; 200 ppm) [%] | Test A disease control rating (Pythium aphanidermatum; 200 ppm) [%] | Test B disease control rating ([2]; 200 ppm) [%] | Test D disease control rating (Plasmopara viticola; 200 ppm) [%] | Test E disease control rating (Botrytis cinerea; 200 ppm) [%] | Test K disease control rating ([3]; 200 ppm) [%] | Test J disease control rating (Septoria tritici; 200 ppm) [%] | Test H disease control rating (Septoria nodorum; 200 ppm) [%] | Test L disease control rating [1, 4] | Test B disease control rating [2, 4] | Test E disease control rating (Botrytis cinerea; [4]) | Test K disease control rating [3, 4] | Test J disease control rating (Septoria tritici; [4]) | Test H disease control rating (Septoria nodorum; [4]) | Test L disease control rating ([1]; 40 ppm (*)) | Test G disease control rating (Rhizoctonia oryzae; 40 ppm (*)) | Test B disease control rating ([2]; 40 ppm (*)) | further results
CC(C)Cn1c(-c2c(F)cccc2F)c(Cl)nc(-c2cnn(C)c2)c1=O [compound 100] | 0 | 13 | 0 | 0 | 0 | 0 | 0 | 0 | 26 | 3 | 0 |  |  |  |  |  |  |  |  |  | 
Cc1cccc(-n2c(-c3c(F)cccc3F)c(Cl)nc(-n3cccn3)c2=O)c1C [compound 378] |  |  |  |  |  |  |  |  |  |  |  | 91* % | 0* % | 98* % | 98* % | 100* % | 98* % |  |  |  | Test F disease control rating (Phytophthora infestans; [4]): 0* %; Test G disease control rating (Rhizoctonia oryzae; [4]): 51* %; Test I disease control rating (fusarium graminearium; [4]): 0* %; Test A disease control rating (Pythium aphanidermatum; [4]): 0* %; Test D disease control rating (Plasmopara viticola; [4]): 0* %
CCC(C)Cn1c(-c2ccc(F)cc2Cl)c(Cl)nc(-n2cncn2)c1=O (centres unmarked) [compound 165] |  |  |  |  |  |  |  |  |  |  |  |  |  |  |  |  |  | 100* % | 16* % | 52* % | Test F disease control rating (Phytophthora infestans; 40 ppm (*)): 0* %; Test I disease control rating (fusarium graminearium; 40 ppm (*)): 0* %; Test A disease control rating (Pythium aphanidermatum; 40 ppm (*)): 0* %; Test D disease control rating (Plasmopara viticola; 40 ppm (*)): 31* %; Test E disease control rating (Botrytis cinerea; 40 ppm (*)): 100* %; Test K disease control rating ([3]; 40 ppm (*)): 100* %; Test J disease control rating (Septoria tritici; 40 ppm (*)): 100* %; Test H disease control rating (Septoria nodorum; 40 ppm (*)): 100* %
O=c1c(-n2cccn2)nc(Cl)c(-c2c(F)cc(F)cc2F)n1-c1ccccc1Cl [compound 375] |  |  |  |  |  |  |  |  |  |  |  | 100* % | 100* % | 99* % | 100* % | 100* % | 100* % |  |  |  | Test F disease control rating (Phytophthora infestans; [4]): 0* %; Test G disease control rating (Rhizoctonia oryzae; [4]): 95* %; Test I disease control rating (fusarium graminearium; [4]): 80* %; Test A disease control rating (Pythium aphanidermatum; [4]): 0* %; Test D disease control rating (Plasmopara viticola; [4]): 0* %
CC(C)Cn1c(-c2cc(Br)c3c(c2)OCO3)c(Cl)nc(-n2cccn2)c1=O [compound 89] | 0 | 0 | 0 | 0 | 0 | 0 | 0 | 0 | 0 | 0 | 0 |  |  |  |  |  |  |  |  |  | 
CCC(C)Cn1c(-c2c(F)cccc2F)c(Cl)nc(-n2nccn2)c1=O (centres unmarked) [compound 191] | 0 | 0 | 0 | 0 | 0 | 0 | 0 | 97 | 86 | 36 | 0 |  |  |  |  |  |  |  |  |  | 
O=c1c(-n2cccn2)nc(Cl)c(-c2c(F)cccc2F)n1C1CCC1 [compound 363] |  |  |  |  |  |  |  |  |  |  |  | 99* % | 0* % | 99* % | 100* % | 59* % | 100* % |  |  |  | Test F disease control rating (Phytophthora infestans; [5]): 0%; Test G disease control rating (Rhizoctonia oryzae; [4]): 93* %; Test I disease control rating (fusarium graminearium; [5]): 0%; Test A disease control rating (Pythium aphanidermatum; [5]): 0%; Test D disease control rating (Plasmopara viticola; [5]): 0%
CCC(C)Cn1c(-c2c(F)cccc2F)c(Cl)nc(-n2nc(C)cc2C)c1=O (centres unmarked) [compound 62] | 0 | 0 | 0 | 0 | 0 | 0 | 0 | 31 | 83 | 15 | 0 |  |  |  |  |  |  |  |  |  | 
CC(C)Cn1c(-c2ccsc2)c(Cl)nc(-n2cncn2)c1=O [compound 159] | 47 |  |  | 0 | 0 |  | 0 |  |  |  |  |  |  |  |  |  |  | 0* % | 0* % | 0* % | Test E disease control rating (Botrytis cinerea; 40 ppm (*)): 0* %; Test K disease control rating ([3]; 40 ppm (*)): 0* %; Test J disease control rating (Septoria tritici; 40 ppm (*)): 69* %; Test H disease control rating (Septoria nodorum; 40 ppm (*)): 0* %
O=c1c(-n2cccn2)nc(Cl)c(-c2c(F)cccc2F)n1-c1ccc(F)cc1 [compound 382] |  |  |  |  |  |  |  |  |  |  |  | 50* % | 63* % | 99* % | 100* % | 100* % | 99* % |  |  |  | Test F disease control rating (Phytophthora infestans; [4]): 0* %; Test G disease control rating (Rhizoctonia oryzae; 200 ppm, 100 = 100% disease control, 0 = no control relative to controls): 16%; Test I disease control rating (fusarium graminearium; [4]): 0* %; Test A disease control rating (Pythium aphanidermatum; [4]): 0* %; Test D disease control rating (Plasmopara viticola; [4]): 0* %
CC(C)Cn1c(-c2ccccc2Br)c(Cl)nc(-n2cccn2)c1=O [compound 195] |  |  |  |  |  |  |  |  |  |  |  |  |  |  |  |  |  | 0* % | 47* % | 26* % | Test F disease control rating (Phytophthora infestans; 40 ppm (*)): 0* %; Test I disease control rating (fusarium graminearium; 40 ppm (*)): 0* %; Test A disease control rating (Pythium aphanidermatum; 40 ppm (*)): 0* %; Test D disease control rating (Plasmopara viticola; 40 ppm (*)): 0* %; Test E disease control rating (Botrytis cinerea; 40 ppm (*)): 99* %; Test K disease control rating ([3]; 40 ppm (*)): 100* %; Test J disease control rating (Septoria tritici; 40 ppm (*)): 100* %; Test H disease control rating (Septoria nodorum; 40 ppm (*)): 87* %
CC(C)Cn1c(-c2c(F)cccc2F)c(Cl)nc(-c2nccn2C)c1=O [compound 102] | 0 | 0 | 0 | 0 | 0 | 0 | 0 | 0 | 0 | 0 | 0 |  |  |  |  |  |  |  |  |  | 
CCC(C)Cn1c(-c2ccc(F)cc2Cl)c(Cl)nc(-n2nc(C)cc2C)c1=O (centres unmarked) [compound 168] |  |  |  |  |  |  |  |  |  |  |  |  |  |  |  |  |  | 0* % | 0* % | 0* % | Test F disease control rating (Phytophthora infestans; 40 ppm (*)): 0* %; Test I disease control rating (fusarium graminearium; 40 ppm (*)): 0* %; Test A disease control rating (Pythium aphanidermatum; 40 ppm (*)): 0* %; Test D disease control rating (Plasmopara viticola; 40 ppm (*)): 0* %; Test E disease control rating (Botrytis cinerea; 40 ppm (*)): 0* %; Test K disease control rating ([3]; 40 ppm (*)): 0* %; Test J disease control rating (Septoria tritici; 40 ppm (*)): 36* %; Test H disease control rating (Septoria nodorum; 40 ppm (*)): 0* %
